# Where two headings read alike, the source gives them in different places.
# Assays:
# [1] = 23° C.
# Method: The pH-solubility profile of brimonidine tartrate in an aqueous formulation (Ophthalmic Solution) was established in the pH range of about 5 to about 8 at 23° C. Table 1. […] Likewise, the temperature may be varied somewhat, for example, solubility curves may be performed at room temperature.
# The formulation vehicle was prepared by first dissolving polyvinyl alcohol (PVA) in water. The PVA was added to approximately ⅓ of the required total amount of purified water with constant stirring. The slurry was stirred for 20-30 minutes and then heated to 80-95° C. with constant stirring. The mixture was removed from the heat source within 1 hour after having reached the temperature of 80-90° C. and stirred for an additional 10 minutes to ensure homogeneity (Part I). The other ingredients of the Ophthalmic Solution, except for brimonidine tartrate, were dissolved in a separate container with an additional ⅓ of the required total amount of purified water (Part II). The PVA mixture (Part I) was then quantitatively transferred to Part II using several rinse volumes of purified water. The solution was adjusted to final volume with purified water without pH adjustment.
# Brimonidine tartrate was weighed and transferred to a 10 mL test tube containing 5 mL of the formulation vehicle described above. The pH of each sample was then adjusted to a desired value using dilute sodium hydroxide and/or dilute hydrochloric acid. The samples were placed in a rack on a stir plate and stirred at high speed to achieve uniform mixing for 2 days; a partition was placed between the rack and the stir plate to prevent any heat diffusion from the stir plate to the samples.
# At the end of two days of stirring, the pH value of each sample was measured, and then approximately 1 mL of each sample was placed in a micro centrifuge tube (polypropylene) and centrifuged at 4,000 rpm for 10 minutes. The supernatant was filtered through a 1 μm filter unit (Whatman, […], PTFE). The first 3-4 drops of the filtrate were discarded; the rest of the filtrate was received and diluted quantitatively with HPLC mobile phase. The dilute sample was then injected directly on the HPLC column (Dupont Zorbax, 250 mm×4.6 mm, 5 μm) for brimonidine tartrate assay in order to quantify the amount of brimonidine tartrate. A control of 0.5% brimonidine tartrate was prepared in the same formulation vehicle at pH 6.3-6.5 and assayed before (untreated) and after (treated) centrifugation and filtration. This was done to evaluate the potential loss of brimonidine tartrate in these two steps of the sample preparation. To ensure reproducibility, the study was repeated on consecutive days.
# [2] = composition including chlorite, equilibrated ten days
# Method: Brimonidine tartrate is added to a test tube containing a composition including chlorite. The test tube was allowed to equilibrate for ten days. Samples obtained from the test tube are analyzed by HPLC using a size exclusion column in the presence or absence of a chaotrope, such as urea.
# [3] = for Solubility of Brimonidine tartrate: fifteen days
# Method: The effect of pH on the solubility of brimonidine tartrate in liquid formulations with and without SECs was determined. Particularly, the effect of the presence or absence of various concentrations of an exemplary SEC, sodium carboxymethylcellulose (CMC), on the solubility of brimonidine tartrate at various pH conditions was determined. The various concentrations of CMC tested with Brimonidine tartrate were 0%, 0.056%, 0.17%, 0.5%, 1.5% (w/v), see Table III.
# The samples tested also contained isotonic components, buffer components, and stabilized chlorine dioxide (Purite™), Table III. Sodium carboxymethylcellulose, sodium chloride, potassium chloride, calcium chloride dihydrate, and magnesium chloride hexahydrate were USP grade. Boric acid and sodium borate decahydrate were NF grade.
# Each sample (1 through 5) was brought to various points within a range of pH values from about 7 to about 10. The vials containing the sample solutions were placed on a laboratory rotator and left to equilibrate for fifteen days at 21° C. The sample solutions were filtered using a 25 mm diameter polysulfone cellulose acetate syringe type filter with 0.45 μm pore size. The filtered solutions were assayed for the amount of brimonidine tartrate in solution.
# Conventional HPLC and detection techniques were used to detect and determine the concentrations of soluble brimonidine tartrate. Solubility is plotted against pH for each CMC concentration. The experimental data points were fitted to a modified Henderson-Hasselbalch equation using a nonlinear least squares routine (Deltagraph version 4.0 DeltaPoint, Inc.), See FIG. 1.
molecule,measurement,setting,value
Brc1c(NC2=NCCN2)ccc2nccnc12 [5-bromo-6-(2-imidozolin-2-ylamino)quinoxaline],pKa,physchem,~7.4
5-bromo-6-(2-imidozolin-2-ylamino)quinoxaline tartrate [Brimonidine tartrate],Solubility,"[1]; STUDY 1, pH 5.55, Ophthalmic Solution, theoretical concentration based on sample weight, solution clear",> 16.44^b mgml^−1
same,Solubility,"[1]; STUDY 1, pH 5.92, Ophthalmic Solution",13.26 mgml^−1
same,Solubility,"[1]; STUDY 1, pH 6.14, Ophthalmic Solution",3.04 mgml^−1
same,Solubility,"[1]; STUDY 1, pH 6.57, Ophthalmic Solution",0.755 mgml^−1
same,Solubility,"[1]; STUDY 1, pH 7.00, Ophthalmic Solution",0.269 mgml^−1
same,Solubility,"[1]; STUDY 1, pH 7.45, Ophthalmic Solution",0.117 mgml^−1
same,Solubility,"[1]; STUDY 1, pH 7.83, Ophthalmic Solution",0.062 mgml^−1
same,Solubility,"[1]; STUDY 2, pH 5.50, Ophthalmic Solution, theoretical concentration based on sample weight, solution clear",> 20.06^b mgml^−1
same,Solubility,"[1]; STUDY 2, pH 5.92, Ophthalmic Solution",16.08 mgml^−1
same,Solubility,"[1]; STUDY 2, pH 6.06, Ophthalmic Solution",5.01 mgml^−1
same,Solubility,"[1]; STUDY 2, pH 6.90, Ophthalmic Solution",0.319 mgml^−1
same,Solubility,"[1]; STUDY 2, pH 7.40, Ophthalmic Solution",0.119 mgml^−1
same,Solubility,"[1]; STUDY 2, pH 7.77, Ophthalmic Solution",0.063 mgml^−1
same,Solubility,"[1]; STUDY 2, pH 7.86, Ophthalmic Solution",0.058 mgml^−1
same,Solubility,"[1]; STUDY 2, pH 7.88, Ophthalmic Solution",0.054 mgml^−1
same,"Formation of dimers, by apparent molecular weights of brimonidine in solution",[2],a portion of the brimonidine tartrate monomer units have conjugated to form dimmers
same,Solubility of Brimonidine tartrate,"[3]; 0% CMC, pH 7.11, 21° C.",0.2064 % w/v
same,Solubility of Brimonidine tartrate,"[3]; 0% CMC, pH 7.68, 21° C.",0.0786 % w/v
same,Solubility of Brimonidine tartrate,"[3]; 0% CMC, pH 8.50, 21° C.",0.0286 % w/v
same,Solubility of Brimonidine tartrate,"[3]; 0% CMC, pH 10.09, 21° C.",0.0218 % w/v
same,Solubility of Brimonidine tartrate,"[3]; 0.056% CMC, pH 6.67, 21° C.",0.9302 % w/v
same,Solubility of Brimonidine tartrate,"[3]; 0.056% CMC, pH 7.11, 21° C.",0.2828 % w/v
same,Solubility of Brimonidine tartrate,"[3]; 0.056% CMC, pH 7.77, 21° C.",0.0721 % w/v
same,Solubility of Brimonidine tartrate,"[3]; 0.056% CMC, pH 9.93, 21° C.",0.0234 % w/v
same,Solubility of Brimonidine tartrate,"[3]; 0.17% CMC, pH 6.68, 21° C.",1.4200 % w/v
same,Solubility of Brimonidine tartrate,"[3]; 0.17% CMC, pH 6.93, 21° C.",0.7302 % w/v
same,Solubility of Brimonidine tartrate,"[3]; 0.17% CMC, pH 7.81, 21° C.",0.0735 % w/v
same,Solubility of Brimonidine tartrate,"[3]; 0.17% CMC, pH 8.55, 21° C.",0.0328 % w/v
same,Solubility of Brimonidine tartrate,"[3]; 0.17% CMC, pH 10.05, 21° C.",0.0241 % w/v
same,Solubility of Brimonidine tartrate,"[3]; 0.5% CMC, pH 6.67, 21° C.",1.4464 % w/v
same,Solubility of Brimonidine tartrate,"[3]; 0.5% CMC, pH 7.10, 21° C.",0.3693 % w/v
same,Solubility of Brimonidine tartrate,"[3]; 0.5% CMC, pH 7.56, 21° C.",0.1451 % w/v
same,Solubility of Brimonidine tartrate,"[3]; 0.5% CMC, pH 8.46, 21° C.",0.0313 % w/v
same,Solubility of Brimonidine tartrate,"[3]; 0.5% CMC, pH 9.94, 21° C.",0.0250 % w/v
same,Solubility of Brimonidine tartrate,"[3]; 1.5% CMC, pH 6.68, 21° C.",1.4256 % w/v
same,Solubility of Brimonidine tartrate,"[3]; 1.5% CMC, pH 7.35, 21° C.",0.1904 % w/v
same,Solubility of Brimonidine tartrate,"[3]; 1.5% CMC, pH 8.10, 21° C.",0.0498 % w/v
same,Solubility of Brimonidine tartrate,"[3]; 1.5% CMC, pH 8.67, 21° C.",0.0311 % w/v
same,Solubility of Brimonidine tartrate,"[3]; 1.5% CMC, pH 10.11, 21° C.",0.0222 % w/v
same,Soluble Brimonidine tartrate (FIG. 1),"[3]; pH 7.5, 0% CMC",1000 ppm
same,Soluble Brimonidine tartrate (FIG. 1),"[3]; pH 7.5, 0.056% CMC",1300 ppm
same,Soluble Brimonidine tartrate (FIG. 1),"[3]; pH 7.5, 0.17% CMC",1300 ppm
same,Soluble Brimonidine tartrate (FIG. 1),"[3]; pH 7.5, 0.5% CMC",1600 ppm
same,Soluble Brimonidine tartrate (FIG. 1),"[3]; pH 7.5, 1.5% CMC",about 1400 ppm
